This note sets out measurements from patent US12102633B2, “Spirolactone compounds” (Quixgen, Inc., priority 2017, dated 2024).

Data set [1] relates to T1, Mouse ACC (ACC protein purified from liver).
T1 construct: ACC protein was purified by taking advantage of the biotinylation in the carboxylase domain
The data set is described as follows: Mouse ACC enzymatic activity assay. To be noted: read-out: EA-CoA mACC IC50. Type of data set: biochemical. In short, it runs like this: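 ACC affinity-purified from livers of male C57BL/6J mice (biotin-based capture), pre-incubated 10 min at 37 °C with compound. Reaction with 0.5 mM acetyl-CoA, 4.0 mM ATP, 15 mM 13C-NaHCO3, 0.5 mM citrate, pH 7.5, 1 h at 37 °C; malonyl-13C-CoA quantified by LC-MS/MS as pmoles/mg protein per minute.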

A short description of data set [2]: Standard PK in CD-1 mice (m-PK). To be noted: for half-life / clearance: male; for half-life: CD-1, mouse, whole blood, read-out: m-PK T1/2 (converted); for clearance: CD-1, whole blood, 1 mg/kg IV, read-out: m-PK Cl; for clearance / m-PK F: mouse; for m-PK F: 5 mg/kg PO vs 1 mg/kg IV. The data set is classed as in vivo, mouse. As to the method:
Standard PK. Male catheterized CD-1 mice were treated with Compound 6 prepared in vehicle (5% DMSO+10% Solutol+85% PBS, PH=7.4) at doses of 1 mg/kg for IV (5 mL/kg) or 5 mg/kg for PO (10 mL/kg). Blood samples (20 VL) were collected at 0.083, 0.25, 0.5, 1, 2, 4, 8, and 24 hrs post dose and mixed with 60 VL 0.1 M sodium citrate. Upon extraction by using acetonitrile, blood concentrations of Compound 6 were quantitated by LC-MS/MS. PK parameters were calculated by using WinNonlin® 6.4.

A further data set deals with 3T3-L1 adipocytes. The data set is described as follows: Lipogenesis of 3T3-L1 adipocytes. To be noted: Mus musculus, TG readout, read-out: LG-3T3 IC50. Type of data set: cell-based. As to the method: 3T3-L1 fibroblast cells (Zen-Bio) were grown in 96-well culture microplate (Corning) with growth media to around 90-100% confluency. Culture media was changed to differentiation media (growth media supplemented with 3-Isobutyl-1-Methylxanthine 500 μM, Dexamethasone 1 μM, insulin 10 μg/mL, and rosiglitazone 2 μM) plus serially diluted compounds prepared in DMSO (1:1000 dilution). After incubation for 2 days, media was changed to maintenance media (growth media supplemented with insulin 10 μg/mL) plus serially diluted compounds prepared in DMSO (1:1000 dilution) for around 1 week with media changed every 2 days. Upon completion of the treatment, culture media are discarded and 200 μL 0.01% SDS was added to each well and shaken for 1 hour to lyse the cells. Cell lysates were then transferred to 400 μL Folch's solution (chloroform: methanol=2:1) and mixed well. After centrifuge at 2,000 rpm for 20 min, 200 μL of the lower organic phase was transferred to a plate with 10 μL sample buffer (chloroform:Triton-100=3:1). Samples were blown dried under nitrogen and 200 μL triglyceride (TG) quantification reagent (Thermo Fisher Scientific) was added, mixed, and incubated at 37° C. for 30 min. TG concentration was determined by reading absorbance at 535 nm (Dynex MRX^e Magellan Biosciences) and calculated from standard curve.

With `COc1cc(C(=O)N2CCC3(CC2)Cc2ccc(C(C)C)cc2C(=O)O3)nc2c(OC)cccc12` [Example 2, 1′-(4,8-dimethoxyquinoline-2-carbonyl)-7-isopropylspiro[isochroman-3,4′-piperidin]-1-one], the half-inhibitory concentration (IC50) in data set [1] is 2.4 nM. Moreover, in data set [2], the half-life is 25.2 min, the clearance is 2.79 L/h/kg and the “m-PK F” value is “F: 4.9%”. The IC50 in the data set with 3T3-L1 adipocytes came to 0.8 nM.

Consider `COc1cc(C(=O)N2CCC3(CC2)Cc2ccc(Nc4ccnn4C)cc2C(=O)O3)nc2c(OC)cccc12` [Example 6, 1′-(4,8-dimethoxyquinoline-2-carbonyl)-7-((1-methyl-1H-pyrazol-5-yl)amino)spiro[isochroman-3,4′-piperidin]-1-one], for which the concentration for half-maximal inhibition (IC50) in data set [1] worked out at 0.34 nM. In addition, in data set [2], the half-life is 30 min, the clearance amounted to 0.912 L/h/kg and the “m-PK F” value is given as “F: 53%”. Further, in the data set on 3T3-L1 adipocytes, the IC50 was 21.9 nM.

What is called IC50 is the concentration that inhibits the measured activity by half.
